{
  "source": "patent US20050038098A1",
  "about": "“Substituted dihydronaphthalene and isochroman compounds for the treatment of metabolic disorders, cancer and other diseases” (priority 2003, published 2005)",
  "key": {"3T3-L1 pre-adipocytes": {"test_system": "3T3-L1 pre-adipocytes", "details": "comparative compound, stated as already shown; cited from earlier work"}, "[1]": {"test_system": "THP-1 cells differentiated into macrophages (macrophage foam cells)", "test": "Cholesterol efflux assay from macrophage foam cells", "assay_type": "cell-based", "details": "1 μM final concentration, 10 μg/ml ApoA-I, 24 hr, vs non treated cells", "method": "Cholesterol efflux from macrophage foam cells was assayed as described by Sparrow. et al, J. Biol. Chem., 2002, 277, 10021-10027, which is incorporated herein in its entirety by this reference. THP-1 cells obtained from ATCC (Manassas, VI), were cultured in RPMI medium (Sigma, St-Louis, Mo.), containing 10% fetal calf serum (Sigma, St-Louis, Mo.), […] 2-mercaptoethanol, 1 mM sodium pyruvate, 2 mM L-glutamine, 100 units/ml penicillin, […] streptomycin and 0.25 μg/ml amphotericin B obtained from Sigma (St-Louis, Mo.). The THP-1 cells were differentiated into macrophages in 24 well tissue culture dishes at a density of 0.5 million cells/well by incubation in the same medium plus 100 nM tetradecanoyl phorbol acetate (Sigma, St-Louis, Mo.), for 3 days.\nAfter differentiation into macrophages, the cells were tested for cholesterol efflux as induced by Compound 11 of the invention. Cells were labeled by incubation for 24 hr in fresh growth medium containing [3H]-cholesterol (10 μCi/ml) (PerkinElmer, Boston, Mass.), and 50 μg/ml acetylated-LDL (Frederick, Md.) and 1% Fetal bovine serum (Sigma, St-Louis, Mo.). […] Media were briefly centrifuged to remove non-adherent cells, and then aliquots of both the supernatant and the dissolved cells were counted by liquid scintillation spectrometry to determine radioactivity."}, "[2]": {"test_system": "carcinogen induced mammary tumors", "test": "Carcinogen induced mammary tumors in Sprague Dawley rats", "assay_type": "in vivo, rat", "details": "combination treatment with tamoxifen (800 μg/kg) compared to tamoxifen alone", "method": "Procedure: Five week-old female Sprague Dawley rats (Harlan) were housed in a fixed 12-12-hr artificial light-dark cycle, and maintained on a standard rodent diet provided ad libitum. Animals were allowed two days to acclimate in this experimental environment prior to the initiation of the study.\nTo induce mammary tumors, the female […] were injected intraperitoneally with the carcinogen n-nitroso-n-methylurea, in a single dose of 50 mg/kg in acidified normal saline (pH4 w/acetic acid) at a final volume of 10 mg/ml (5 ml/kg). After eight weeks, mammary tumors are detected, and the tumor bearing females are sorted into treatment groups. Once sorted, the animals were housed four per cage and provided rodent diet ad libitum. All animals are treated with test compound or a vehicle for four weeks, during which time, changes in tumor size are monitored. Tumors were classified as regressing, static or progressing.\nTreatment groups (n=8/group): • 1) Control (sesame oil) • 2) Tamoxifen (800 μg/kg) • 3) Compound 1 (10 mg/kg) • 4) Compound 1 (20 mg/kg) • 5) Compound 1 (50 mg/kg) • 6) Compound 1 (100 mg/kg) • 7) Compound 1 (20 mg/kg)+Tamox. (800 μg/kg) • 8) Compound 9 (75 mg/kg) • 9) Compound 11 (20 mg/kg) • 10) Compound 11 (20 mg/kg)+Tamox. (800 μg/kg) • 11) Compound 11 (50 mg/kg) […]"}},
  "data": [
    {"smiles": "Cc1cc2c(cc1-c1cc(/C=C3\\SC(=O)NC3=O)ccc1OC(F)(F)F)C(C)(C)CCC2(C)C", "note": "[Compound 41, 5-[3-(3,5,5,8,8-Pentamethyl-5,6,7,8-tetrahydro-naphthalen-2-yl)-4-trifluoromethoxy-benzylidene]-thiazolidine-2,4-dione]", "values": [
      {"measurement": "inducer of adipocyte differentiation", "setting": "3T3-L1 pre-adipocytes", "value": "potent inducer of adipocyte differentiation"}
    ]},
    {"smiles": "COc1c(F)cc(/C=C2\\SC(=O)NC2=O)c(F)c1-c1cc2c(cc1C)C(C)(C)OCC2(C)C", "note": "[Compound 11, 5-[2,5-Difluoro-4-methoxy-3-(1,1,4,4,7-pentamethyl-isochroman-6-yl)-benzylidene]-thiazolidine-2,4-dione]", "values": [
      {"measurement": "cholesterol efflux", "setting": "[1]", "value": "effective for inducing cholesterol efflux"},
      {"measurement": "cholesterol efflux", "setting": "[1]; listed as compound 11", "value": "increases cholesterol efflux"}
    ]},
    {"smiles": "Cc1cc2c(cc1-c1cc(/C=C3\\SC(=O)NC3=O)ccc1OC(F)(F)F)C(C(C)C)=CCC2(C)C", "note": "[Compound 1, 5[3-(8-Isopropyl-3,5,5-trimethyl-5,6-dihydro-naphthalen-2-yl)-4-trifluoromethoxy-benzylidene]-thiazolidine-2,4-dione]", "values": [
      {"measurement": "effect on mammary tumors in combination with tamoxifen", "setting": "[2]", "value": "unexpectedly improved and/or synergistic effects"}
    ]}
  ]
}
